According to the kinase profiling compilation of Christmann-Franck et al. (2016):

Assays:
Test in all cases: radiometric filter-binding kinase assay, Kinase HotSpot
Settings in all cases: compound 0.5 µM; ATP 10 µM
SRPK1 (human) = SRPK1 (human) (UniProt Q96SB4)
PAK2 (human) = PAK2 (human) (UniProt Q13177)
DYRK4 (human) = DYRK4 (human) (UniProt Q9NR20)
PDPK1 (human) = PDPK1 (human) (UniProt O15530)
PLK2 (human) = PLK2 (human) (UniProt Q9NYY3)
MARK3 (human) = MARK3 (human) (UniProt P27448)
PAK3 (human) = PAK3 (human) (UniProt O75914)
MKNK2 (human) = MKNK2 (human) (UniProt Q9HBH9)
JAK3 JH1 JH2 (human) = JAK3 JH1 JH2 (human) (UniProt P52333)
EPHB2 (human) = EPHB2 (human) (UniProt P29323)
VRK1 (human) = VRK1 (human) (UniProt Q99986)
RPS6KA4 KD2 (human) = RPS6KA4 KD2 (human) (UniProt O75676)
MAP3K11 (human) = MAP3K11 (human) (UniProt Q16584)
MAP3K7 TAB1 (human) = MAP3K7 TAB1 (human) (UniProt O43318+Q15750)
JAK2 JH1 JH2 (human) = JAK2 JH1 JH2 (human) (UniProt O60674)
ALK (human) = ALK (human) (UniProt Q9UM73)
LRRK2 (human) = LRRK2 (human) (UniProt Q5S007)
NTRK2 (human) = NTRK2 (human) (UniProt Q16620)
ERBB2 (human) = ERBB2 (human) (UniProt P04626)
CLK2 (human) = CLK2 (human) (UniProt P49760)
CLK3 (human) = CLK3 (human) (UniProt P49761)
TTK (human) = TTK (human) (UniProt P33981)
MAP2K1 (human) = MAP2K1 (human) (UniProt Q02750)
CHUK (human) = CHUK (human) (UniProt O15111)
CAMK1 (human) = CAMK1 (human) (UniProt Q14012)
IRAK1 (human) = IRAK1 (human) (UniProt P51617)
TXK (human) = TXK (human) (UniProt P42681)
CSNK1G1 (human) = CSNK1G1 (human) (UniProt Q9HCP0)
NEK4 (human) = NEK4 (human) (UniProt P51957)
DYRK1A (human) = DYRK1A (human) (UniProt Q13627)
ERBB4 (human) = ERBB4 (human) (UniProt Q15303)
MLTK (human) = MLTK (human) (UniProt Q9NYL2)
PTK6 (human) = PTK6 (human) (UniProt Q13882)
STK39 (human) = STK39 (human) (UniProt Q9UEW8)
PRKX (human) = PRKX (human) (UniProt P51817)
PRKD2 (human) = PRKD2 (human) (UniProt Q9BZL6)
TAOK2 (human) = TAOK2 (human) (UniProt Q9UL54)
TBK1 (human) = TBK1 (human) (UniProt Q9UHD2)
CDK4 CCND1 (human) = CDK4 CCND1 (human) (UniProt P24385+P11802)
MAPK1 (human) = MAPK1 (human) (UniProt P28482)
CLK1 (human) = CLK1 (human) (UniProt P49759)
HIPK1 (human) = HIPK1 (human) (UniProt Q86Z02)
HIPK1 (human), sequence (Q86Z02 whole entry, looked up): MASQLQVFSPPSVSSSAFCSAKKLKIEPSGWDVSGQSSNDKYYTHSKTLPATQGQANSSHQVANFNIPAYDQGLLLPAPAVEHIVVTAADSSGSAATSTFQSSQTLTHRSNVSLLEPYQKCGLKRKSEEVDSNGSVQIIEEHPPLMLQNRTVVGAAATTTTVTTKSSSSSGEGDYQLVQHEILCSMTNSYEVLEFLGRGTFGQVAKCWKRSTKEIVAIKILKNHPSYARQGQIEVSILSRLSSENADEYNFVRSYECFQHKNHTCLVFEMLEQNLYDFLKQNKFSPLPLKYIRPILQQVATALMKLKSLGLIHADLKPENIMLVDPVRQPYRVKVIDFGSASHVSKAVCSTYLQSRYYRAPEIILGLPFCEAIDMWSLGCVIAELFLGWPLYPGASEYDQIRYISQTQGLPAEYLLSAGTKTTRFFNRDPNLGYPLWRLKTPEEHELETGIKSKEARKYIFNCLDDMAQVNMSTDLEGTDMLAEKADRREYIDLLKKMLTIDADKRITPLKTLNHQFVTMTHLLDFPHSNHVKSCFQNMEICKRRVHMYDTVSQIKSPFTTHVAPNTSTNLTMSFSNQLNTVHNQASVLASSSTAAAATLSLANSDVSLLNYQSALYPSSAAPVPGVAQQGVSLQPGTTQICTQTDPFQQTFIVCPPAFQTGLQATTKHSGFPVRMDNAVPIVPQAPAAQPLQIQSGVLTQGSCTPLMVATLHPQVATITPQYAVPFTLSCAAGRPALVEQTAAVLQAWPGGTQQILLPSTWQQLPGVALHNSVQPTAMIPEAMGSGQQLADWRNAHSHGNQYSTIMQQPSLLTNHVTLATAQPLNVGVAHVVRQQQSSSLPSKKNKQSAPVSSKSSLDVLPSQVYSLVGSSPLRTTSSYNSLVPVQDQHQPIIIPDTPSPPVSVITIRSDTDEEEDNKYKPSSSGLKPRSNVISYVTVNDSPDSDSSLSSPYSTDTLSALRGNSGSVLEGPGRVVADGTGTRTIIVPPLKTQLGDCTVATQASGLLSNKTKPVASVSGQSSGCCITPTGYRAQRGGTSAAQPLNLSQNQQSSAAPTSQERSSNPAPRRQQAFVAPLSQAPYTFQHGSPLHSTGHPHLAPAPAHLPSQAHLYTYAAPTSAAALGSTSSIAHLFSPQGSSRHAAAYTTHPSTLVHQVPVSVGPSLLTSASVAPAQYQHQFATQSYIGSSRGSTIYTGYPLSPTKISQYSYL

PLK2 (human), sequence (Q9NYY3 whole entry, looked up): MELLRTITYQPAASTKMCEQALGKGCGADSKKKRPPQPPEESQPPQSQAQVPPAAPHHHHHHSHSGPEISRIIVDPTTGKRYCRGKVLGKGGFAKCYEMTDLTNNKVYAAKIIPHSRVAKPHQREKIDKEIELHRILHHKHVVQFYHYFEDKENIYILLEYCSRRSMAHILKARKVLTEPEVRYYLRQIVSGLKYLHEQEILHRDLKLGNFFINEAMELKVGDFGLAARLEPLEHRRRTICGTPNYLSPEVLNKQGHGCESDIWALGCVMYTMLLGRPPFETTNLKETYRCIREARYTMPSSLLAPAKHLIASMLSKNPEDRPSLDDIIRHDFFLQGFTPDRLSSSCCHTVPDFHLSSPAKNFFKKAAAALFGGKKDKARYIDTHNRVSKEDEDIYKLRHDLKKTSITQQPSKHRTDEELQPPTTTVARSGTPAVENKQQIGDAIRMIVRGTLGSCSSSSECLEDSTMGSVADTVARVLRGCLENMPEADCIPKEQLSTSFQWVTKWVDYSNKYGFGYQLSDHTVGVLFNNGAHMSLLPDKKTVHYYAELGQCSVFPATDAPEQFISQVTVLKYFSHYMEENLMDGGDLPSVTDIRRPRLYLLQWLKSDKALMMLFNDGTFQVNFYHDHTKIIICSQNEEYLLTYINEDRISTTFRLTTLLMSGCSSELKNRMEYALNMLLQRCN
PAK3 (human), sequence (O75914 whole entry, looked up): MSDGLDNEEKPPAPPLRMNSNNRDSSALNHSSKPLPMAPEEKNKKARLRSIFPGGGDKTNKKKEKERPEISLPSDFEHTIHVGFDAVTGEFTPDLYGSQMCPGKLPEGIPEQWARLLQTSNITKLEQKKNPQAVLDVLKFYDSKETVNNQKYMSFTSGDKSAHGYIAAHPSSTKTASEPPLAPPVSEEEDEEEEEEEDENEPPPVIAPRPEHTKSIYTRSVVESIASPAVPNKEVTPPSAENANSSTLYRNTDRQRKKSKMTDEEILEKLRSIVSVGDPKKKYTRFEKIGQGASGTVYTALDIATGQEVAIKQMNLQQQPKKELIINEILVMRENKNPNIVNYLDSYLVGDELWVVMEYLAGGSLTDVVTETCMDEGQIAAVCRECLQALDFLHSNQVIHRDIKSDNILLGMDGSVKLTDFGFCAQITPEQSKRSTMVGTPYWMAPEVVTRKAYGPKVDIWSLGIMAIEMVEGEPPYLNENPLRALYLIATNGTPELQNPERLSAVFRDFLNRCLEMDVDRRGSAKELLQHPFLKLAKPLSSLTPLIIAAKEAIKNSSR
RPS6KA4 KD2 (human), sequence (O75676 whole entry, looked up): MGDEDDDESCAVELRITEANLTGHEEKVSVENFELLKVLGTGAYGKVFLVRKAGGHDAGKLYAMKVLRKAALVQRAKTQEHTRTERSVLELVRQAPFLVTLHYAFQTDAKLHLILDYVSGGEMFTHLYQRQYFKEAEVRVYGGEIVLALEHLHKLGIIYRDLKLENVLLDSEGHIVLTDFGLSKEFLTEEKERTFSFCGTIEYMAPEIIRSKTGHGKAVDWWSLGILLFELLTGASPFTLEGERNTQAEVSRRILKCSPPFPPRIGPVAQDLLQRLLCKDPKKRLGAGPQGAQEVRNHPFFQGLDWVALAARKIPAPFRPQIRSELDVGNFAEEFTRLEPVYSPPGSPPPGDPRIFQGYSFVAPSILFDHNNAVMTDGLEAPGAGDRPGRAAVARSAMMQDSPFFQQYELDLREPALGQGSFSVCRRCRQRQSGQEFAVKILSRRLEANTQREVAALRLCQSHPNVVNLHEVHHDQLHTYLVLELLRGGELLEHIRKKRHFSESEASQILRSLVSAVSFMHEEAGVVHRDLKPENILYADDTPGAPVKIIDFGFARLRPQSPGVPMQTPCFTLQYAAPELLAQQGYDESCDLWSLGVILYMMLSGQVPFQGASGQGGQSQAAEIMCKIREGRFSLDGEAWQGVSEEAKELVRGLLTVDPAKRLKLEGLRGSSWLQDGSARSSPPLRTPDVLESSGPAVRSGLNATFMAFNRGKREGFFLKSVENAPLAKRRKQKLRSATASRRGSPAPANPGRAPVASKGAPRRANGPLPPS
PTK6 (human), sequence (Q13882 whole entry, looked up): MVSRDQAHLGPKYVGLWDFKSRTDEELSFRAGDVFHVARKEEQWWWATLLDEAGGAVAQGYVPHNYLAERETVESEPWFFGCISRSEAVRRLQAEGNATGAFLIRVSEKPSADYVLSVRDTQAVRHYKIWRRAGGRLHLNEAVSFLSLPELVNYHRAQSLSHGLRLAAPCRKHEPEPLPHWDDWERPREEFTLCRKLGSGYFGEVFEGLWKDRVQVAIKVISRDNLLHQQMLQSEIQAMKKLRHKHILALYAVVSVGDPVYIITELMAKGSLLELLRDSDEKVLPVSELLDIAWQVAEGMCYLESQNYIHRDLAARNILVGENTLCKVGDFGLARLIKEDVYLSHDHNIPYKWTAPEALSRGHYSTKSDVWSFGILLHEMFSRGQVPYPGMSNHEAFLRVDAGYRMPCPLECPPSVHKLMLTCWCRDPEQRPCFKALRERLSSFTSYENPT
MARK3 (human), sequence (P27448 whole entry, looked up): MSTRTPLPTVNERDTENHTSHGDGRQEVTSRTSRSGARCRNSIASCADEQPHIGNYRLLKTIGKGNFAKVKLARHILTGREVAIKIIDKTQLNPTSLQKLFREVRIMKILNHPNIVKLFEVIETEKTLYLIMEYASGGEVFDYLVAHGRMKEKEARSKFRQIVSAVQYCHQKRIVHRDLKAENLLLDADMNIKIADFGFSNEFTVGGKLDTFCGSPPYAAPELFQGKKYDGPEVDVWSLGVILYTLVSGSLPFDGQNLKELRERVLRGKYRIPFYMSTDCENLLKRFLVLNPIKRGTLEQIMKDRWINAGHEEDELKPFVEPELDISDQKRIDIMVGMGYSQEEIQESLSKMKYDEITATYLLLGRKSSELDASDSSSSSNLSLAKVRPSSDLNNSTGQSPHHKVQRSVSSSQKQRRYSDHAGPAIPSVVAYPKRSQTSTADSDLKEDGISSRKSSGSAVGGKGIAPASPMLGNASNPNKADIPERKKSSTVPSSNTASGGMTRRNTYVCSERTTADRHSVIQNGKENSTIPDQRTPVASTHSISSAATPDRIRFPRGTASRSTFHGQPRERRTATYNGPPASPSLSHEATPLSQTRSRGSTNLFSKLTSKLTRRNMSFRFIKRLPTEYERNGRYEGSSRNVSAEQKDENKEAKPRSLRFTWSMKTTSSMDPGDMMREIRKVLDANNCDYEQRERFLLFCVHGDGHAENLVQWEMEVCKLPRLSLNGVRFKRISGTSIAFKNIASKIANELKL
CDK4 CCND1 (human), sequence (P11802 whole entry, looked up): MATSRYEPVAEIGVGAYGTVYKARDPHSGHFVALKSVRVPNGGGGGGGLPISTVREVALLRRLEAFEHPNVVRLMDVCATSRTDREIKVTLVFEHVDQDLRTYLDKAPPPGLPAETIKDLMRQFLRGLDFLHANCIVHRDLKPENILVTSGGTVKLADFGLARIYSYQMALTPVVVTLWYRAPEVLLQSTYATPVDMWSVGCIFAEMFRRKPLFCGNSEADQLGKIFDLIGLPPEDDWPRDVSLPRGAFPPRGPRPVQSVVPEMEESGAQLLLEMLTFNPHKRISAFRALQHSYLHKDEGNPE
CDK4 CCND1 (human), sequence (P24385 whole entry, looked up): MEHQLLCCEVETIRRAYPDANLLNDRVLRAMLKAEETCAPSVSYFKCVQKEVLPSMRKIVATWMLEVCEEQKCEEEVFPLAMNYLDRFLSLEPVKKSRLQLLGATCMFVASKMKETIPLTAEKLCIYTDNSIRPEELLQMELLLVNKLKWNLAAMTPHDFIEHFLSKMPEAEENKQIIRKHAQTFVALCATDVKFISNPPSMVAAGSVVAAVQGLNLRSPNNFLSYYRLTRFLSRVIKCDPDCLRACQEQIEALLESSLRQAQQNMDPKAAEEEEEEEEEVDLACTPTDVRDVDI

For `Nc1ncnc2c1c(-c1ccc(Oc3ccccc3)cc1)cn2C1CCCC1`, the residual activity (SRPK1 (human)) was 105%, the residual activity (PAK2 (human)) was 106% and the residual activity (DYRK4 (human)) was 91.6%. For the same compound, the residual activity (PDPK1 (human)) was 102%, the residual activity (PLK2 (human)) was 92.5% and the residual activity (MARK3 (human)) was 89.8%. For the same compound, the residual activity (PAK3 (human)) was 98.4%, the residual activity (MKNK2 (human)) was 94.9% and the residual activity (JAK3 JH1 JH2 (human)) was 105%. It also gave a residual activity (EPHB2 (human)) of 90.5%, a residual activity (VRK1 (human)) of 84.8% and a residual activity (RPS6KA4 KD2 (human)) of 105%. It also gave a residual activity (MAP3K11 (human)) of 92.9%, a residual activity (MAP3K7 TAB1 (human)) of 92.3% and a residual activity (JAK2 JH1 JH2 (human)) of 104%. For the same compound, the residual activity (ALK (human)) was 80.6%, the residual activity (LRRK2 (human)) was 86.2% and the residual activity (NTRK2 (human)) was 87%. For the same compound, the residual activity (ERBB2 (human)) was 101%, the residual activity (CLK2 (human)) was 95.2% and the residual activity (CLK3 (human)) was 96.9%. For the same compound, the residual activity (TTK (human)) was 104%, the residual activity (MAP2K1 (human)) was 93% and the residual activity (CHUK (human)) was 99.7%. For the same compound, the residual activity (CAMK1 (human)) was 100%, the residual activity (IRAK1 (human)) was 110% and the residual activity (TXK (human)) was 17.3%. The residual activity (CSNK1G1 (human)) was 90.8%, the residual activity (NEK4 (human)) was 92.1% and the residual activity (DYRK1A (human)) was 99.1%. For the same compound, the residual activity (ERBB4 (human)) was 11.9%, the residual activity (MLTK (human)) was 70.3% and the residual activity (PTK6 (human)) was 0.775%. It also gave a residual activity (STK39 (human)) of 84.8%, a residual activity (PRKX (human)) of 102% and a residual activity (PRKD2 (human)) of 91.5%. It also gave a residual activity (TAOK2 (human)) of 104%, a residual activity (TBK1 (human)) of 92.7% and a residual activity (CDK4 CCND1 (human)) of 121%. The residual activity (MAPK1 (human)) was 80.7%, the residual activity (CLK1 (human)) was 103% and the residual activity (HIPK1 (human)) was 114%.
With `CCN(CC)CCNC(=O)c1c(C)[nH]c(/C=C2\C(=O)Nc3ccc(Cl)cc32)c1C` the residual activity (SRPK1 (human)) was 95.9%, the residual activity (PAK2 (human)) was 92.7% and the residual activity (DYRK4 (human)) was 97.9%. It also gave a residual activity (PDPK1 (human)) of 101%, a residual activity (PLK2 (human)) of 91.2% and a residual activity (MARK3 (human)) of 7.86%. It also gave a residual activity (PAK3 (human)) of 93.8%, a residual activity (MKNK2 (human)) of 88.8% and a residual activity (JAK3 JH1 JH2 (human)) of 39.3%. The residual activity (EPHB2 (human)) was 87.5%, the residual activity (VRK1 (human)) was 90.7% and the residual activity (RPS6KA4 KD2 (human)) was 59%. For the same compound, the residual activity (MAP3K11 (human)) was 21%, the residual activity (MAP3K7 TAB1 (human)) was 3.51% and the residual activity (JAK2 JH1 JH2 (human)) was 54%. The residual activity (ALK (human)) was 3.45%, the residual activity (LRRK2 (human)) was 1.44% and the residual activity (NTRK2 (human)) was 8.43%. For the same compound, the residual activity (ERBB2 (human)) was 102%, the residual activity (CLK2 (human)) was 15.8% and the residual activity (CLK3 (human)) was 101%. It also gave a residual activity (TTK (human)) of 59.8%, a residual activity (MAP2K1 (human)) of 33.1% and a residual activity (CHUK (human)) of 102%. For the same compound, the residual activity (CAMK1 (human)) was 75.9%, the residual activity (IRAK1 (human)) was 14.1% and the residual activity (TXK (human)) was 79.5%. For the same compound, the residual activity (CSNK1G1 (human)) was 69.2%, the residual activity (NEK4 (human)) was 97% and the residual activity (DYRK1A (human)) was 47.2%. For the same compound, the residual activity (ERBB4 (human)) was 86.1%, the residual activity (MLTK (human)) was 95.8% and the residual activity (PTK6 (human)) was 51.3%. For the same compound, the residual activity (STK39 (human)) was 81.9%, the residual activity (PRKX (human)) was 83.9% and the residual activity (PRKD2 (human)) was 11.9%. The residual activity (TAOK2 (human)) was 72.6%, the residual activity (TBK1 (human)) was 16.3% and the residual activity (CDK4 CCND1 (human)) was 74.1%. For the same compound, the residual activity (MAPK1 (human)) was 97.1%, the residual activity (CLK1 (human)) was 34.2% and the residual activity (HIPK1 (human)) was 96.9%.
For `Cc1ccc(NC2=CC(=O)c3sc(C)nc3C2=O)cc1`, the residual activity (SRPK1 (human)) was 92.6%, the residual activity (PAK2 (human)) was 104% and the residual activity (DYRK4 (human)) was 97.9%. The residual activity (PDPK1 (human)) was 88.7%, the residual activity (PLK2 (human)) was 95.1% and the residual activity (MARK3 (human)) was 95.1%. The residual activity (PAK3 (human)) was 97.5%, the residual activity (MKNK2 (human)) was 89% and the residual activity (JAK3 JH1 JH2 (human)) was 97.4%. The residual activity (EPHB2 (human)) was 100%, the residual activity (VRK1 (human)) was 108% and the residual activity (RPS6KA4 KD2 (human)) was 88.4%. It also gave a residual activity (MAP3K11 (human)) of 101%, a residual activity (MAP3K7 TAB1 (human)) of 99.1% and a residual activity (JAK2 JH1 JH2 (human)) of 99.1%. It also gave a residual activity (ALK (human)) of 105%, a residual activity (LRRK2 (human)) of 102% and a residual activity (NTRK2 (human)) of 100%. It also gave a residual activity (ERBB2 (human)) of 94.2%, a residual activity (CLK2 (human)) of 83.6% and a residual activity (CLK3 (human)) of 98.6%. It also gave a residual activity (TTK (human)) of 98.9%, a residual activity (MAP2K1 (human)) of 96.1% and a residual activity (CHUK (human)) of 91.9%. It also gave a residual activity (CAMK1 (human)) of 87.6%, a residual activity (IRAK1 (human)) of 108% and a residual activity (TXK (human)) of 98.8%. It also gave a residual activity (CSNK1G1 (human)) of 102%, a residual activity (NEK4 (human)) of 95.3% and a residual activity (DYRK1A (human)) of 103%. The residual activity (ERBB4 (human)) was 98.5%, the residual activity (MLTK (human)) was 94% and the residual activity (PTK6 (human)) was 89.2%. It also gave a residual activity (STK39 (human)) of 93.4%, a residual activity (PRKX (human)) of 96.8% and a residual activity (PRKD2 (human)) of 87.7%. It also gave a residual activity (TAOK2 (human)) of 96.6%, a residual activity (TBK1 (human)) of 94% and a residual activity (CDK4 CCND1 (human)) of 92%. The residual activity (MAPK1 (human)) was 91.4%, the residual activity (CLK1 (human)) was 100% and the residual activity (HIPK1 (human)) was 96.7%.
